Activity calls are given as the source filed them. The rule behind the calls is not given here. Peptide text beside a SMILES is read from it. * marks the point of attachment. Carboxymethyl = O=C(O)C*; CH2CH2COOH = O=C(O)CC*
How the values were obtained:
Glucagon receptor [1] = target: T1, Glucagon receptor (Homo sapiens, UniProt P47871); assay: Partial antagonist activity at human GCGR expressed in HEK293 cells assessed as inhibition of glucogon-induced cAMP production; type: functional, cell-based; settings: filed as antagonist
T1 sequence (P47871 whole entry): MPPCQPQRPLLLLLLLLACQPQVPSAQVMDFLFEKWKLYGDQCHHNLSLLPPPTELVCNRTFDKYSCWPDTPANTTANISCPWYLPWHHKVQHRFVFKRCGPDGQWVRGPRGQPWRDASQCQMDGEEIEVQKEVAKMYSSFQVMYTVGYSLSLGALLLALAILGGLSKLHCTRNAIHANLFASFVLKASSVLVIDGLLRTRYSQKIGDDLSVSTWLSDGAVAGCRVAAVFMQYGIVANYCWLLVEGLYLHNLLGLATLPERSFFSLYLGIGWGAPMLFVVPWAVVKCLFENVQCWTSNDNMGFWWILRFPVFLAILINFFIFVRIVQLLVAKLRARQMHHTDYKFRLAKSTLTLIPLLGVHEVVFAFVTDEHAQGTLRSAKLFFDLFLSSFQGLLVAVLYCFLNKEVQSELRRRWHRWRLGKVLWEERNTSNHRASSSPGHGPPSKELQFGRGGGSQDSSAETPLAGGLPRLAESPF

Glucagon receptor [2] = target: T1, Glucagon receptor; assay: Antagonist activity at human GCGR expressed in HEK293 cells assessed as inhibition of glucogon-induced cAMP production; type: functional, cell-based

Compound	Activity (Glucagon receptor [1])	IC50 (Glucagon receptor [2]) [nM]
CSCC[C@H](NC(=O)[C@H](CC(C)C)NC(=O)[C@H](Cc1c[nH]c2ccccc12)NC(=O)[C@H](CCC(N)=O)NC(=O)[C@@H](NC(=O)[C@H](Cc1ccccc1)NC(=O)[C@H](CC(=O)O)NC(=O)[C@H](CCC(N)=O)NC(=O)[C@H](C)NC(=O)[C@H](CCCNC(=N)N)NC(=O)[C@H](CCCNC(=N)N)NC(=O)[C@H](CO)NC(=O)[C@H](CC(=O)O)NC(=O)[C@H](CC(C)C)NC(=O)[C@H](Cc1ccc(O)cc1)NC(=O)[C@H](CCCCN)NC(=O)[C@H](CO)NC(=O)[C@H](Cc1ccc(O)cc1)NC(=O)CN(CCC(=O)O)C(=O)[C@H](CO)NC(=O)[C@@H](NC(=O)[C@H](Cc1ccccc1)NC(=O)[C@@H](NC(=O)CNC(=O)[C@H](CCC(N)=O)NC(=O)[C@@H](N)CO)[C@@H](C)O)[C@@H](C)O)C(C)C)C(=O)N[C@@H](CC(N)=O)C(=O)N[C@H](C(N)=O)[C@@H](C)O	Active	–
CSCC[C@H](NC(=O)[C@H](CC(C)C)NC(=O)[C@H](Cc1c[nH]c2ccccc12)NC(=O)[C@H](CCC(N)=O)NC(=O)[C@@H](NC(=O)[C@H](Cc1ccccc1)NC(=O)[C@H](CC(=O)O)NC(=O)[C@H](CCC(N)=O)NC(=O)[C@H](C)NC(=O)[C@H](CCCNC(=N)N)NC(=O)[C@H](CCCNC(=N)N)NC(=O)[C@H](CO)NC(=O)[C@H](CC(=O)O)NC(=O)[C@H](CC(C)C)NC(=O)[C@H](Cc1ccc(O)cc1)NC(=O)[C@H](CCCCN)NC(=O)[C@H](CO)NC(=O)[C@H](Cc1ccc(O)cc1)NC(=O)CN(CCCC(=O)O)C(=O)[C@H](CO)NC(=O)[C@@H](NC(=O)[C@H](Cc1ccccc1)NC(=O)[C@@H](NC(=O)CNC(=O)[C@H](CCC(N)=O)NC(=O)[C@@H](N)CO)[C@@H](C)O)[C@@H](C)O)C(C)C)C(=O)N[C@@H](CC(N)=O)C(=O)N[C@H](C(N)=O)[C@@H](C)O	Active	–
CSCC[C@H](NC(=O)[C@H](CC(C)C)NC(=O)[C@H](Cc1c[nH]c2ccccc12)NC(=O)[C@H](CCC(N)=O)NC(=O)[C@@H](NC(=O)[C@H](Cc1ccccc1)NC(=O)[C@H](CC(=O)O)NC(=O)[C@H](CCC(N)=O)NC(=O)[C@H](C)NC(=O)[C@H](CCCNC(=N)N)NC(=O)[C@H](CCCNC(=N)N)NC(=O)[C@H](CO)NC(=O)[C@H](CC(=O)O)NC(=O)[C@H](CC(C)C)NC(=O)[C@H](Cc1ccc(O)cc1)NC(=O)[C@H](CCCCN)NC(=O)[C@H](CO)NC(=O)[C@H](Cc1ccc(O)cc1)NC(=O)C[C@H](CCC(=O)O)NC(=O)[C@H](CO)NC(=O)[C@@H](NC(=O)[C@H](Cc1ccccc1)NC(=O)[C@@H](NC(=O)CNC(=O)[C@H](CCC(N)=O)NC(=O)[C@@H](N)CO)[C@@H](C)O)[C@@H](C)O)C(C)C)C(=O)N[C@@H](CC(N)=O)C(=O)N[C@H](C(N)=O)[C@@H](C)O	Active	–
CSCC[C@H](NC(=O)[C@H](CC(C)C)NC(=O)[C@H](Cc1c[nH]c2ccccc12)NC(=O)[C@H](CCC(N)=O)NC(=O)[C@@H](NC(=O)[C@H](Cc1ccccc1)NC(=O)[C@H](CC(=O)O)NC(=O)[C@H](CCC(N)=O)NC(=O)[C@H](C)NC(=O)[C@H](CCCNC(=N)N)NC(=O)[C@H](CCCNC(=N)N)NC(=O)[C@H](CO)NC(=O)[C@H](CC(=O)O)NC(=O)[C@H](CC(C)C)NC(=O)[C@H](Cc1ccc(O)cc1)NC(=O)[C@H](CCCCN)NC(=O)[C@H](CO)NC(=O)[C@H](Cc1ccc(O)cc1)NC(=O)[C@H](CCCC(=O)O)NC(=O)[C@H](CO)NC(=O)[C@@H](NC(=O)[C@H](Cc1ccccc1)NC(=O)[C@@H](NC(=O)CNC(=O)[C@H](CCC(N)=O)NC(=O)[C@@H](N)CO)[C@@H](C)O)[C@@H](C)O)C(C)C)C(=O)N[C@@H](CC(N)=O)C(=O)N[C@H](C(N)=O)[C@@H](C)O	Active	–
CSCC[C@H](NC(=O)[C@H](CC(C)C)NC(=O)[C@H](Cc1c[nH]c2ccccc12)NC(=O)[C@H](CCC(N)=O)NC(=O)[C@@H](NC(=O)[C@H](Cc1ccccc1)NC(=O)[C@H](CC(=O)O)NC(=O)[C@H](CCC(N)=O)NC(=O)[C@H](C)NC(=O)[C@H](CCCNC(=N)N)NC(=O)[C@H](CCCNC(=N)N)NC(=O)[C@H](CO)NC(=O)[C@H](CC(=O)O)NC(=O)[C@H](CC(C)C)NC(=O)[C@H](Cc1ccc(O)cc1)NC(=O)[C@H](CCCCN)NC(=O)[C@H](CO)NC(=O)[C@H](Cc1ccc(O)cc1)NC(=O)[C@H](CSCC(=O)O)NC(=O)[C@H](CO)NC(=O)[C@@H](NC(=O)[C@H](Cc1ccccc1)NC(=O)[C@@H](NC(=O)CNC(=O)[C@H](CCC(N)=O)NC(=O)[C@@H](N)CO)[C@@H](C)O)[C@@H](C)O)C(C)C)C(=O)N[C@@H](CC(N)=O)C(=O)N[C@H](C(N)=O)[C@@H](C)O	Active	–
CSCC[C@H](NC(=O)[C@H](CC(C)C)NC(=O)[C@H](Cc1c[nH]c2ccccc12)NC(=O)[C@H](CCC(N)=O)NC(=O)[C@@H](NC(=O)[C@H](Cc1ccccc1)NC(=O)[C@H](CC(=O)O)NC(=O)[C@H](CCC(N)=O)NC(=O)[C@H](C)NC(=O)[C@H](CCCNC(=N)N)NC(=O)[C@H](CCCNC(=N)N)NC(=O)[C@H](CO)NC(=O)[C@H](CC(=O)O)NC(=O)[C@H](CC(C)C)NC(=O)[C@H](Cc1ccc(O)cc1)NC(=O)[C@H](CCCCN)NC(=O)[C@H](CO)NC(=O)[C@H](Cc1ccc(O)cc1)NC(=O)[C@H](CSCCC(=O)O)NC(=O)[C@H](CO)NC(=O)[C@@H](NC(=O)[C@H](Cc1ccccc1)NC(=O)[C@@H](NC(=O)CNC(=O)[C@H](CCC(N)=O)NC(=O)[C@@H](N)CO)[C@@H](C)O)[C@@H](C)O)C(C)C)C(=O)N[C@@H](CC(N)=O)C(=O)N[C@H](C(N)=O)[C@@H](C)O	Active	–
CSCC[C@H](NC(=O)[C@H](CC(C)C)NC(=O)[C@H](Cc1c[nH]c2ccccc12)NC(=O)[C@H](CCC(N)=O)NC(=O)[C@@H](NC(=O)[C@H](Cc1ccccc1)NC(=O)[C@H](CC(=O)O)NC(=O)[C@H](CCC(N)=O)NC(=O)[C@H](C)NC(=O)[C@H](CCCNC(=N)N)NC(=O)[C@H](CCCNC(=N)N)NC(=O)[C@H](CO)NC(=O)[C@H](CC(=O)O)NC(=O)[C@H](CC(C)C)NC(=O)[C@H](Cc1ccc(O)cc1)NC(=O)[C@H](CCCCN)NC(=O)[C@H](CO)NC(=O)[C@H](Cc1ccc(O)cc1)NC(=O)[C@H](CSCCC(=O)O)NC(=O)[C@H](CO)NC(=O)[C@@H](NC(=O)[C@@H](N)Cc1ccccc1)[C@@H](C)O)C(C)C)C(=O)N[C@@H](CC(N)=O)C(=O)N[C@H](C(N)=O)[C@@H](C)O (H-FTSC(CH2CH2COOH)YSKYLDSRRAQDFVQWLMNT-NH2)	–	81.8
CSCC[C@H](NC(=O)[C@H](CC(C)C)NC(=O)[C@H](Cc1c[nH]c2ccccc12)NC(=O)[C@H](CCC(N)=O)NC(=O)[C@@H](NC(=O)[C@H](Cc1ccccc1)NC(=O)[C@H](CC(=O)O)NC(=O)[C@H](CCC(N)=O)NC(=O)[C@H](C)NC(=O)[C@H](CCCNC(=N)N)NC(=O)[C@H](CCCNC(=N)N)NC(=O)[C@H](CO)NC(=O)[C@H](CC(=O)O)NC(=O)[C@H](CC(C)C)NC(=O)[C@H](Cc1ccc(O)cc1)NC(=O)[C@H](CCCCN)NC(=O)[C@H](CO)NC(=O)[C@H](Cc1ccc(O)cc1)NC(=O)[C@H](CSCC(=O)O)NC(=O)[C@H](CO)NC(=O)[C@@H](NC(=O)[C@@H](N)Cc1ccccc1)[C@@H](C)O)C(C)C)C(=O)N[C@@H](CC(N)=O)C(=O)N[C@H](C(N)=O)[C@@H](C)O (H-FTSC(Carboxymethyl)YSKYLDSRRAQDFVQWLMNT-NH2)	–	71.4
H-GTFTSEYSKYLDSRRAQDFVQWLMNT-NH2	–	275
